Data taken from ChEMBL document CHEMBL6127044, “An insight into G-quadruplexes: Identification and potential therapeutic targets in livestock viruses” (Eur J Med Chem, 2024).

Legend:
Vero = test: Cytotoxicity against African green monkey Vero cells at 50 uM incubated for 24 hrs by MTT assay relative to control; assay type: toxicity, cell-based; conditions: chlorocebus sabaeus
[1] = system: Porcine epidemic diarrhea virus; test: Antiviral activity against Porcine epidemic diarrhea virus infected in African green monkey Vero E6 cells assessed as inhibition of viral replication at 25 uM relative to control; assay type: functional; conditions: Vero C1008

| Compound | Activity (Vero) [%] | inhibition at 25 µM [1] [%] |
| --- | --- | --- |
| C[n+]1cc(NC(=O)c2ccc3ccc4ccc(C(=O)Nc5cc6ccccc6[n+](C)c5)nc4c3n2)cc2ccccc21 | 80 | – |
| C[n+]1ccc(-c2c3nc(c(-c4cc[n+](C)cc4)c4ccc([nH]4)c(-c4cc[n+](C)cc4)c4nc(c(-c5cc[n+](C)cc5)c5ccc2[nH]5)C=C4)C=C3)cc1 [TMPYP4 CHLORIDE] | – | 99 |
| NCCOc1cc(C(=O)Nc2cc(OCCN)c3ccccc3n2)nc(C(=O)Nc2cc(OCCN)c3ccccc3n2)c1 [PYRIDOSTATIN] | 80 | 99 |
